Where two headings read alike, the source gives them in different places.
Target: human PD-L1 / Human PD-1 (Homo sapiens (Human), UniProt Q9NZQ7)
Assay: Enzyme-Linked Immunosorbent Assay (ELISA), PD-1/PD-L1 binding
Conditions: plate-coated human PD-L1, biotinylated human PD-1, read-out: ELISA IC50
How it was run: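 Human PD-L1 coated at 1 μg/mL overnight at 4° C; samples diluted 1:5 and incubated with human PD-1 and biotin (0.3 μg/mL) for 1 h at 37° C. Bound PD-1 detected with streptavidin-HRP and TMB (20 min, 37° C), acid-stopped, absorbance at 450 nm.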

human PD-L1 / Human PD-1, sequence (Q9NZQ7 19-239): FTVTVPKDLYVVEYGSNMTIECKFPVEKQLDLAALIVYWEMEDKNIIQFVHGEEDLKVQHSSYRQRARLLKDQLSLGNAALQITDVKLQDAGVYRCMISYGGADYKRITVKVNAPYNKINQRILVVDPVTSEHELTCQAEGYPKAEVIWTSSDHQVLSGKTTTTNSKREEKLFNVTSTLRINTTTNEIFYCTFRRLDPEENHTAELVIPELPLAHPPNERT

IC50 (Table 3)	IC50 (Table 2)	Compound
< 100 nM	–	N#Cc1cc(Br)cc(COc2cc(O[C@H]3CCc4c(-c5ccccc5F)cccc43)c(Cl)cc2CN[C@@H](CO)C(=O)O)c1 [Example 3.063]
< 100 nM	–	N#Cc1cncc(COc2cc(O[C@H]3CCc4c(-c5ccccc5F)cccc43)c(Cl)cc2CNCCO)c1 [Example 3.128]
< 100 nM	–	N#Cc1cncc(COc2cc(O[C@H]3CCc4c(-c5ccccc5CO)cccc43)c(Cl)cc2CN[C@@H](CO)C(=O)O)c1 [Example 3.127]
< 100 nM	–	C[C@H](NCc1cc(Cl)c(O[C@H]2CCc3c(-c4ccccc4F)cccc32)cc1OCc1cncc(C#N)c1)C(=O)N[C@@H](CO)C(=O)O [Example 3.047]
500 to 20000 nM	–	COCc1ccccc1-c1cccc2c1CC[C@@H]2Oc1cc(OCc2cncc(C#N)c2)c(CN[C@@H](CO)C(=O)O)cc1Cl [Example 3.115]
–	100 to 500 nM	N#Cc1cncc(COc2cc(O[C@H]3CCc4c(-c5ccc(F)cc5)cccc43)c(Cl)cc2CN[C@@H](CO)C(=O)O)c1 [Example 2.008]
< 100 nM	–	N#Cc1cncc(COc2cc(O[C@H]3CCc4c(-c5ccccc5F)cccc43)c(Cl)cc2CN2CC[C@@H](C(=O)O)C2)c1 [Example 3.132]
< 100 nM	–	N#Cc1cc(Cl)cc(COc2cc(O[C@H]3CCc4c(-c5ccc6c(c5F)OCCO6)cccc43)c(Cl)cc2CN[C@@H](CO)C(=O)O)c1 [Example 3.015]
< 100 nM	–	N#Cc1cncc(COc2cc(O[C@H]3CCc4c(-c5ccccc5F)cccc43)c(Cl)cc2CN[C@H]2CCCC[C@@H]2O)c1 [Example 3.021]
< 100 nM	–	N#Cc1cncc(COc2cc(O[C@@H]3CCc4c(-c5ccccc5F)cccc43)c(Cl)cc2CN[C@H](CO)C(=O)O)c1 [Example 3.069]
–	500 to 20000 nM	COc1cccc(-c2cccc3c2CCC3CCOc2cc(OCc3cncc(C#N)c3)c(CN3CC(O)C3)cc2Cl)c1F (stereo not shown) [Example 2.088]
–	< 100 nM	N#Cc1cncc(-c2cc(O[C@H]3CCc4c(-c5ccccc5F)cccc43)c(Cl)cc2CN[C@@H](CO)C(=O)O)c1 [Example 2.115]
–	< 100 nM	COc1cc(O[C@H]2CCc3c(-c4ccc5c(c4)OCCO5)cccc32)c(Cl)cc1CN[C@@H](CO)C(=O)O [Example 2.039]
–	500 to 20000 nM	CN(C)c1cccc(-c2cccc3c2CC[C@@H]3Oc2cc(OCc3cncc(C#N)c3)c(CN[C@@H](CO)C(=O)O)cc2Cl)c1 [Example 2.027]
–	< 100 nM	N#Cc1cncc(COc2cc(O[C@@H]3CCc4c(-c5ccccc5)cccc43)c(Cl)cc2CNC[C@@H](O)CC(=O)O)c1 [Example 1.008]
–	100 to 500 nM	COc1ncc(COc2cc(O[C@H]3CCc4c(-c5ccccc5F)cccc43)c(Cl)cc2CN2CCC(O)CC2)cn1 [Example 2.131]
–	100 to 500 nM	Cc1cccc(-c2cccc3c2CC[C@@H]3Oc2cc(OCc3cncc(C#N)c3)c(CN3CC(O)C3)cc2Cl)c1F [Example 2.076]
500 to 20000 nM	–	N#Cc1cncc(COc2cc(O[C@H]3CCc4c(-c5ccc6ccccc6c5)cccc43)c(Cl)cc2CN[C@@H](CO)C(=O)O)c1 [Example 3.125]
–	500 to 20000 nM	COc1cccc(-c2cccc3c2CC(C)C3Oc2cc(OCc3cncc(C#N)c3)c(CN[C@@H](CO)C(=O)O)cc2Cl)c1F (stereo partly shown) [Example 2.049]
–	500 to 20000 nM	N#Cc1cncc(COc2cc(O[C@@H]3c4cccc(-c5ccccc5F)c4C[C@H]3F)c(Cl)cc2CN2CCC(O)CC2)c1 [Example 2.148]
–	< 100 nM	C[C@@H](O)[C@H](NCc1cc(Cl)c(O[C@@H]2c3cccc(-c4ccccc4F)c3C[C@H]2F)cc1OCc1cncc(C#N)c1)C(=O)O [Example 2.146]
–	500 to 20000 nM	N#Cc1cncc(COc2cc(O[C@H]3CCc4c(-c5ccccc5)cccc43)c(Cl)cc2CNCc2ccn[nH]2)c1 [Example 1.015]
< 100 nM	–	N#Cc1cncc(COc2cc(O[C@H]3CCc4c(-c5ccccc5F)cccc43)c(Cl)cc2CNC(CO)(CO)CO)c1 [Example 3.130]
< 100 nM	–	N#Cc1cncc(COc2cc(O[C@H]3CCc4c(-c5ccccc5F)cccc43)c(Cl)cc2CNCC(=O)NCC(=O)O)c1 [Example 3.062]
–	500 to 20000 nM	CCOc1cc(O[C@H]2CCc3c(-c4ccc5c(c4F)OCCO5)cccc32)c(Cl)cc1CN1CCC(O)CC1 [Example 2.059]

From patent publication US10639284B2, “Immunomodulator compounds” (CHEMOCENTRYX, INC., priority 2016, dated 2020)
